What was measured:
Details in all cases: 72 h
[1] = system: HepG2; experiment: drug sensitivity score (DSS) for viability; higher = more toxic; extreme values may be limits of the assay
[2] = system: U2OS; experiment: as above
[3] = system: Vero E6; experiment: as above
[4] = system: Caco-2; experiment: as above
[5] = system: Calu-3; experiment: as above
[6] = system: HepG2; experiment: relative viability EC50 (midpoint between 100% and the lowest measured viability); higher = less toxic
[7] = system: U2OS; experiment: as above
[8] = system: Vero E6; experiment: as above
[9] = system: Caco-2; experiment: as above
[10] = system: Calu-3; experiment: as above
[11] = system: HepG2; experiment: cell viability relative to DMSO; higher = less toxic
[12] = system: U2OS; experiment: as above
[13] = system: Vero E6; experiment: as above
[14] = system: Caco-2; experiment: as above
[15] = system: Calu-3; experiment: as above

Compound | drug sensitivity score [1] | drug sensitivity score [2] | drug sensitivity score [3] | drug sensitivity score [4] | drug sensitivity score [5] | relative viability EC50 [6] [µM] | relative viability EC50 [7] [µM] | relative viability EC50 [8] [µM] | relative viability EC50 [9] [µM] | relative viability EC50 [10] [µM] | cell viability ([11]; 1 nM) [%] | cell viability ([11]; 10 nM) [%] | cell viability ([11]; 100 nM) [%] | cell viability ([11]; 1000 nM) [%] | cell viability ([11]; 10000 nM) [%] | cell viability ([12]; 1 nM) [%] | cell viability ([12]; 10 nM) [%] | cell viability ([12]; 100 nM) [%] | cell viability ([12]; 1000 nM) [%] | cell viability ([12]; 10000 nM) [%] | cell viability ([13]; 1 nM) [%] | cell viability ([13]; 10 nM) [%] | cell viability ([13]; 100 nM) [%] | cell viability ([13]; 1000 nM) [%] | cell viability ([13]; 10000 nM) [%] | cell viability ([14]; 1 nM) [%] | cell viability ([14]; 10 nM) [%] | cell viability ([14]; 100 nM) [%] | cell viability ([14]; 1000 nM) [%] | cell viability ([14]; 10000 nM) [%] | cell viability ([15]; 1 nM) [%] | cell viability ([15]; 10 nM) [%] | cell viability ([15]; 100 nM) [%] | cell viability ([15]; 1000 nM) [%] | cell viability ([15]; 10000 nM) [%]
CC[C@@]1(O)C(=O)OCc2c1cc1n(c2=O)Cc2cc3cc(O)ccc3nc2-1 [10-hydroxycamptothecin] | 31.8 | 12.7 | 9.1 | 12.2 | 20.5 | 0.0158 | 0.715 | 0.9 | 0.573 | 0.0695 | 102 | 47.8 | 31.2 | 5.3 | 2.1 | 102 | 106 | 90.1 | 41.6 | 1.7 | 97.4 | 97.5 | 92.9 | 59.9 | 22.5 | 94.2 | 107 | 89.3 | 43 | 13.2 | 95.8 | 97.5 | 48.7 | 31.4 | 20.2
CC(C)(C)c1cc(C=C(C#N)C#N)cc(Br)c1O [AG-1024] | 0.3 | 0 | 0 | 1.7 | 0 | > 10 | > 10 | > 10 | > 10 | > 10 | 102 | 110 | 109 | 119 | 79.8 | 105 | 106 | 102 | 96.4 | 99.2 | 102 | 96.8 | 98.1 | 94.8 | 92.4 | 98.8 | 96.8 | 101 | 93.3 | 77.4 | 104 | 92.4 | 92 | 87.8 | 100
Cc1ccccc1C(C(=O)NC1CCCCC1)N(C(=O)Cn1ccnc1C)c1cccc(F)c1 (stereo not given) [AGI-5198] | 0 | 0 | 0 | 0 | 0.8 | > 10 | > 10 | > 10 | > 10 | > 10 | 103 | 99.3 | 112 | 88.6 | 103 | 96.6 | 103 | 102 | 106 | 93.2 | 100 | 100 | 98.9 | 99.2 | 101 | 98.4 | 97.5 | 87.9 | 103 | 90.6 | 93.6 | 95.7 | 85.4 | 90.3 | 87.4
N#C/C(=C\c1cccn1S(=O)(=O)c1cccc([N+](=O)[O-])c1)S(=O)(=O)c1ccc(F)cc1 [AMZ30] | 0 | 0 | 0 | 0.4 | 0 | > 10 | > 10 | > 10 | > 10 | > 10 | 95.8 | 105 | 119 | 93.7 | 103 | 102 | 101 | 96.8 | 96.2 | 94.1 | 98.6 | 97.6 | 96.4 | 94.9 | 93.3 | 104 | 99 | 95.3 | 96.3 | 84.8 | 90.5 | 98 | 104 | 105 | 108
CCNC(=O)NS(=O)(=O)c1sc(CC(C)C)cc1-c1ccc(Cn2c(-c3ccccc3)nc(OC)c2C=O)cc1 [AVE-0991] | 0 | 0 | 0 | 0 | 0 | > 10 | > 10 | > 10 | > 10 | > 10 | 102 | 99.6 | 101 | 108 | 102 | 104 | 99.7 | 103 | 100 | 102 | 99.9 | 98.3 | 97.7 | 93.3 | 96 | 108 | 97.5 | 99.1 | 90.1 | 97.7 | 107 | 104 | 110 | 93.8 | 97.9
C/C(=C\C(=O)Nc1ccccc1C(=O)O)c1ccc2ccccc2c1 [BIBR-1532] | 0 | 0 | 0 | 0 | 0 | > 10 | > 10 | > 10 | > 10 | > 10 | 97.6 | 98 | 94.9 | 110 | 118 | 93.8 | 96.9 | 95.5 | 93.3 | 103 | 105 | 99.9 | 97.5 | 103 | 105 | 94.1 | 100 | 103 | 98 | 95.8 | 101 | 102 | 98.2 | 108 | 98
c1ccc2cc(C3=NCCN3)ncc2c1 [BU226] | 0 | 0 | 0 | 0 | 0 | > 10 | > 10 | > 10 | > 10 | > 10 | 102 | 95.7 | 86.1 | 103 | 104 | 105 | 108 | 99.7 | 106 | 100 | 96.6 | 97.1 | 96.5 | 94.6 | 98.7 | 103 | 108 | 94.3 | 97.7 | 101 | 112 | 97.5 | 97 | 97.4 | 91.8
CC(ONC(=O)c1cc(C(F)(F)F)cc(C(F)(F)F)c1)C(=O)Nc1ccc(Cl)cc1 (stereo not given) [CCG-1423] | 0 | 0 | 0 | 0 | 0 | > 10 | > 10 | > 10 | > 10 | > 10 | 108 | 99.4 | 94.9 | 96.8 | 89.2 | 100 | 98.6 | 105 | 99.6 | 101 | 101 | 99.4 | 99 | 105 | 99.2 | 99.9 | 97.9 | 91.4 | 97.4 | 88.6 | 96.4 | 89.5 | 85 | 95.1 | 98.7
c1ccc(Oc2cccnc2)cc1 [CI-844] | 0 | 0 | 0 | 0 | 0 | > 10 | > 10 | > 10 | > 10 | > 10 | 102 | 103 | 94.3 | 97.4 | 106 | 100 | 103 | 94.9 | 97.2 | 96.1 | 101 | 103 | 100 | 99.8 | 98.7 | 96 | 97.6 | 90.4 | 93.1 | 93.2 | 104 | 101 | 89.9 | 94.1 | 106
CC[C@H](CO)Nc1nc(NCc2ccc(-c3ccccn3)cc2)c2ncn(C(C)C)c2n1 [CR8-(R)] | 27.5 | 17.9 | 19.9 | 14.3 | 14.6 | 0.0531 | 0.315 | 0.201 | 0.172 | 0.184 | 88.7 | 102 | 17.2 | 0.7 | 8.8 | 100 | 93.3 | 99.8 | 0.2 | 4.8 | 90.2 | 99.3 | 85.8 | 2.9 | 9.3 | 101 | 97.1 | 86.5 | 34.5 | 34.1 | 104 | 80 | 87 | 31.3 | 39.9
CNc1ccc([N+](=O)[O-])cc1-n1cnc(-c2ccc(C(F)(F)F)cc2)c1 [CU-T12-9] | 0 | 0 | 0 | 0 | 0 | > 10 | > 10 | > 10 | > 10 | > 10 | 108 | 104 | 93.8 | 95.4 | 91.3 | 103 | 103 | 96.2 | 98.2 | 100 | 103 | 96.4 | 100 | 101 | 102 | 95.4 | 105 | 96.8 | 101 | 101 | 104 | 90.9 | 93.8 | 94.9 | 94.9

— the supplement of paper PMC13380429
